For one molecule, Ki results are on record in patent publication US20150175655A1 (priority 2012, published 2015).

The assay addresses T1, NS3 genotype 1b protease (Hepatitis C virus genotype 1b, UniProt Q9WMX2, E1202G).
T1 construct: Purified NS3 protease domain (amino acids 1-181) of the genotype 1b and 3a virus were generated as above; K3 hexahistidine tag (N); rTEV protease cleavage site (N); made in house; host or cells: E. coli BL21AI, pET28 vector p28-N6H-Tev-NS3(181)1b
In words: Ki determination, NS3 protease genotype 1b (fluorogenic depsipeptide substrate). The format is biochemical. The method, boiled down: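 The His-tagged HCV NS3 protease domain (residues 1-181, genotype 1b con-1) was expressed in E. coli, and 50 pM enzyme with 20 μM NS4A peptide was used. Inhibitor (100 nM to 5 pM, 3-fold steps) was pre-incubated 1 h at room temperature in 50 mM HEPES, 40% glycerol, 0.05% Triton X-100, 10 mM DTT, 10% DMSO. The reaction was started with 4 μM fluorogenic substrate, and fluorescence (ex 340/em 490 nm) was read every 30 s between 90 and 120 min. Ki^app came from fitting rates with the Morrison equation.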

For `COc1ccc2nc3c(nc2c1)O[C@H]1CN(C(=O)[C@H](C(C)(C)C)NC(=O)O[C@@H]2C[C@H]2CCCCC3F)[C@H](C(=O)N[C@]2(C(=O)NS(=O)(=O)C3(C)CC3)C[C@H]2C(F)F)[C@@H]1C` (stereo partly drawn) [Example 47, (1aR,5S,8S,9S,10R,22aR)-5-tert-butyl-N-[(1R,2R)-2-(difluoromethyl)-1-{[(1-methylcyclopropyl)sulfonyl]carbamoyl}cyclopropyl]-18-fluoro-14-methoxy-9-methyl-3,6-dioxo-1,1a,3,4,5,6,9,10,18,19,20,21,22,22a-tetradecahydro-8H-7,10-methanocyclopropa[18,19][1,10,3,6]dioxadiazacyclononadecino[11,12-b]quinoxaline-8-carboxamide], the Ki (as a rule, the equilibrium dissociation constant of an inhibitor or competing ligand from its target) came out at 0.07 nM. This lies in the picomolar range.
